The data set is described as follows: Stability of formulation in multi-dose container (Rexam 2.05 mL Sof' Airless). In kind it is physicochemical. As for the experimental part:
Once a candidate package is identified, stability trials are carried out to determine compatibility of the formulation with the container components. Testing is carried out on the formulation packed in the selected containers and stored under a number of controlled conditions (e.g., 40° C./75% RH and 25° C./60% RH) for a specified time up to the expiry date of the product. Tests will include determination of imiquimod content, preservative content, impurity content, appearance, microscopic examination, pH levels and visual container assessment against set standards.
Two batches of Aldara cream were dispensed into Rexam™ 2.05 mL Sof' Airless™ containers. The batches had been previously tested to determine the amount of preservatives (methyl hydroxybenzoate (MHB), propyl hydroxybenzoate (PHB) benzyl alcohol) and imiquimod, at the beginning of the study in Table 4 below.
The batches were stored under various conditions and then analyzed at 2 months, 4 months, 5.5 months and 13 months as shown in Tables 5 to 7 below. The presence of the contaminant 4-OH-R837 was also tested. NOTE: 4-OH-R837 is an Imiquimod impurity.

Take `OCc1ccccc1` [Benzyl alcohol, benzyl alcohol]: the “Benzyl alcohol levels in Aldara cream in multi-dose container” value (40 C/75% RH, up to 13 months, lower specification limit 1.00% w/w) is reported as “just below the lower specification limit”.
Consider `COC(=O)c1ccc(O)cc1` [MHB, methyl hydroxybenzoate], for which, for the setting “up to and including 13 months, both 25 C/60% RH and 40 C/75% RH”, the “Stability in Aldara cream in multi-dose container” value is recorded as “good stability”.
Turning to `CC(C)Cn1cnc2c(=O)[nH]c3ccccc3c21` [4 Hydroxy Imipquimod, 4-Hydroxyimiquimod], under “up to and including 13 months”, the “Impurity level in Aldara cream in multi-dose container” value is given as “below detection limits”.

These data come from patent US11077102B2, “Multidose package, course and method of treatment for delivering predetermined multiple doses of a pharmaceutical” (BAUSCH HEALTH IRELAND LIMITED, priority 2009, dated 2021).
